Test results as given in patent publication US9630894B2, “Energy efficient method and apparatus for the extraction of biomolecules from dilute aqueous solution” (DYNASEP INC., priority 2012, dated 2017).

Experiment: DME saturation concentration in fermentation broth
Format: physicochemical
Settings: fermentation conditions of 38° C.

COC [DME, dimethyl ether]
amount of DME in the broth (saturation): ~2.3 wt. %
